Reference: US6369096B1, “Benzyloxy prodigiosine compounds” (Pharmacia & Upjohn S.p.A., priority 1998, dated 2002)
Where two headings read alike, the source gives them in different places.

Legend:
[1] = In vivo bioavailability evaluation (pharmacokinetics and oral bioavailability); details: 10 mg/kg, male Lewis rat, iv 1 mg salt/kg, oral 10 mg salt/kg, read-out: F % (bioavailability)
Description: Aim of the study is to determine the pharmacokinetics and the oral bioavailability of the instant prodigiosine compounds in rats.
Species/strain/sex: rat/Lewis/male
No. formulations: 1 oral; 1 intravenous
No. animals/formulation: 3+2 controls (+an ulterior rat treated with the iv formulation); total 9
Dosages: iv: 1 mg salt/kg; oral: 10 mg salt/kg
Vehicles: iv: a solution at the conc. of 5 mg/ml in PEG 400/Tween 80 (6:1 v:v) was prepared, then diluted with dextrose at the final concentration of 0.5 mg/ml; oral: a solution at the concentration of 5 mg/ml in Cremophor ELP/EtOH abs (6.5:3.5 v:v) was prepared, then diluted with saline at the final concentration of 1 mg/ml
Experimental: Three cannulated rats/formulation were treated. One rat/formulation was only treated with the vehicle, as basal sample. The intravenous administration was given into the caudal vein as bolus; the oral administration by gastric gavage as solution. […] Plasma was immediately obtained by centrifugation (10000 rpm for 3 min) and stored in labelled tubes at −30° C. till analysis.
Analytical assay: the extraction of the compounds was performed by protein precipitation by adding 100 mcl of acetonitrile to 25 mcl of plasma. The concentrations of the compounds (as free bases) in plasma were determined by LC-MS method. Column: APEX CN RP 5 mc, 10×4 mm (Jones chromatography); mobil phase: 70% acetonitrile/30% 1 mM ammonium formate +0.01% triethylamine adjusted to pH 2.0 with formic acid; flow rate: 1 ml/min; injection volume: 10 mcL; oven temperature: 45° C.; MS detection by APCI using MRM positive ion; MRM transition: 330 m/z>239 m/z, retention time: 1.4 min; LLOQ: 5.03 ng/ml; ULOQ: 10060 ng/ml. Bioavailability is expressed in following Table 1 as F %. ClogP is a lypophylic index, related to octanol/water partition coefficient.

[2] = system: female C57 Bl/6 mice primed and challenged with sheep red blood cells (SRBC); test: DTH (Delayed-Type Hypersensitivity) assay; format: in vivo; details: given daily for six days, dose reducing footpad thickness increase by 30% vs controls
Description: The immunosuppressive activity of the compounds of the invention was evaluated in vivo by DTH (Delayed-Type Hypersensitivity) assay. According to the test, sheep red blood cells (SRBC) (1×10^5 cells) suspended in 500 mcL saline, were injected i.v. into the tail vein of female C57 Bl/6 mice (8-9 week old). Five days later 1×10^8 SRBC suspended in 50 mcL saline were injected into the left hind footpad. The increase in footpad thickness was measured with a dial micrometer 24 h after challenge. The test compounds were given daily for six days at different doses starting on the day of priming. Activity was expressed as ED30 (dose able to reduce by 30% the thickness increase compared to controls).

[3] = system: Th murine cells D10-G4.1 (ATCC TIB 224); test: Inhibition of IL-2 proliferation induced activity (3H-TdR uptake); format: cell-based; details: for 3HTdR uptake: mean cpm from triplicate wells, 48 h
Description: The Th murine cells D10-G4.1 (ATCC TIB 224) are IL-2 dependent for their growth. They are cultured in complete RPMI 1640 medium enriched with rhIL-2 (6 ng/ml) and ConA (6 ng/ml). For testing the inhibitory effects of the compounds of the invention on IL-2 activity, D 10 cells are washed twice with complete medium, resuspended at 10^5 cells/ml in the same medium and triplicately distributed (10^4 cells/well) in flat bottomed 96 well plates. […] and […] at different concentrations are simultaneously added to the cells. The cultures are then incubated at 37° C. in a humidified 5% CO2 incubator for 48 h, the last 18 h in the presence of 0.2 µCi of ^3H-TdR. Uptake of 3H-TdR in the cells (cpm) is taken as a measure of cell proliferation.

Compound | bioavailability ([1]; in vivo) | DTH ED30 iv [2] | DTH ED30 os [2] | % inhibition vs vehicle ([3]; 1 ng/ml) | 3HTdR uptake ([3]; 1 ng/ml) | % inhibition vs vehicle ([3]; 3 ng/ml) | 3HTdR uptake ([3]; 3 ng/ml) | % inhibition vs vehicle ([3]; 10 ng/ml) | 3HTdR uptake ([3]; 10 ng/ml) | % inhibition vs vehicle ([3]; 30 ng/ml) | 3HTdR uptake ([3]; 30 ng/ml) | bioavailability ([1]; plasma)
CCCCCCCCCCCC1=NC(=Cc2[nH]c(-c3ccc[nH]3)cc2OCc2ccccc2)C=C1.Cl [PNU 156804, 4-benzyloxy-5-[(5-undecyl-2H-pyrrol-2-ylidene)methyl]-2,2′-bi-1H-pyrrole, hydrochloride, reference compound] | 7% | 0.44 mg/kg | 18.7 mg/kg |  |  |  |  |  |  |  |  | 
CC1=NC(=Cc2[nH]c(-c3ccc[nH]3)cc2OCc2ccccc2)C=C1.Cl [PNU 168727, 4-benzyloxy-5-[(5-methyl-2H-pyrrol-2-ylidene)methyl]-2,2′-bi-1H-pyrrole, hydrochloride] |  | 1.7 mg/kg | 5.3 mg/kg | 5% | 58245 cpm | 11% | 54594 cpm | 87% | 8100 cpm | 100% | 52 cpm | 35%
CCCCCC1=NC(=Cc2[nH]c(-c3ccc[nH]3)cc2OCc2ccccc2)C=C1.Cl [PNU 169417, 4-benzyloxy-5-[(5-pentyl-2H-pyrrol-2-ylidene)methyl]-2,2′-bi-1H-pyrrole, hydrochloride] |  | 1.1 mg/kg | 4.4 mg/kg |  |  |  |  |  |  |  |  | 18%
